For one data set, the system named is MMP13 in SW1353 cells. Put plainly: OSM/IL-1β signaling assay (MMP13 levels in SW1353 cells).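 Note: secreted MMP13 captured by antibody, activated with APMA and its activity read by fluorescence, inhibition scaled between vehicle-treated triggered wells (0%) and untriggered wells (100%).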 The data set is classed as cell-based. The following applies: Homo sapiens; SW1353 cells, OSM and IL-1β triggered, MMP13 levels 48 hours after triggering; read-out: MMP13 EC50.
Data set [1] deals with Recombinant human JAK1 catalytic domain (Homo sapiens (Human), UniProt P23458). Put plainly: JAK1 inhibition assay. The class given is biochemical. The conditions noted are these: semi-quantitative score. The essentials:
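Radiometric assay read by scintillation counting after phosphoric-acid washes. Percent inhibition calculated from cpm relative to vehicle and 10 μM staurosporine control. IC50 derived from compound dose-dilution series.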

Data set [2] concerns JAK-STAT signalling in HeLa cells. Put plainly: JAK-STAT signalling assay (OSM-triggered pSTAT1(2)-luciferase reporter in HeLa cells). The data set is classed as cell-based. The following applies: Homo sapiens; HeLa cells, OSM-triggered pSTAT1(2)-luciferase reporter; read-out: STAT signalling EC50. The method, boiled down:
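HeLa cells transiently transfected with pSTAT1(2)-luciferase reporter plus LacZ internal control, incubated overnight at 37 °C, 10% CO2, then OSM-stimulated with compound. Luciferase read by Steadylite luminescence and normalised to β-galactosidase (ONPG); percent inhibition from controls, EC50 from dose-response.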
A general note: Reporter assays use an easily measured gene product as a stand-in for the process of interest.

The nature of data set [3]: Microsomal stability, rat liver microsomes. The class given is in vitro ADME. The conditions noted are these: percentage of compound remaining after 60 minutes, 3 μM compound. The procedure: (§1) 40 μL of deionised water was added to a well of a polypropylene Matrix 2D barcode labelled storage tube (Thermo Scientific) and pre-incubated at 37° C.
(§2) A co-factor containing MgCl2, glucose-6-phosphate and NADP+ was prepared in deionised water and placed on ice before use.
(§3) A final working solution containing liver microsomes (Xenotech of a species of interest (human, mouse, rat, dog), previously described G6PDH and co-factors was prepared and this mix was incubated for no longer than 20 minutes at room temperature.
(§4) 30 μL of the pre-heated compound dilution was added to 40 μL of pre-heated water in the Matrix tubes and 30 μL of the microsomal mix was added.
(§5) To measure percentage remaining of compound at time zero MeOH or ACN was added (1:1) to the well before adding the microsomal mix.
(§6) The samples which were not stopped are incubated at 37° C., 300 rpm and after 1 hour of incubation the reaction was stopped with MeOH or ACN (1:1).
(§7) After stopping the reaction the samples were mixed and placed on ice for 30 min to precipitate the proteins.
(§8) The samples were analyzed on LCMS with a flow rate of 1 mL/min. Solvent A was 15 mM ammonia and solvent B was methanol or acetonitrile, depending on the stop solution used. […] The percentage remaining after 1 hour incubation was calculated from time 0 and was calculated as the percentage remaining.
(§9) The data on microsomal stability are expressed as a percentage of the total amount of compound remaining after 60 minutes.
For orientation: Liver microsomes are vesicles of endoplasmic reticulum, rich in cytochrome P450 enzymes.

The target in data set [4] is Recombinant human JAK2 catalytic domain (Homo sapiens (Human), UniProt O60674). Put plainly: JAK2 inhibition assay. The data set is classed as biochemical. The conditions noted are these: semi-quantitative score. The essentials:
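Radiometric kinase reactions ran for 90 min at 30 °C and were stopped with phosphoric acid, then washed and counted by scintillation. Percent inhibition was set relative to vehicle and to 10 μM staurosporine background. IC50 was derived from dose-dilution series.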

Data set [5] in a line: Microsomal stability, human liver microsomes. The data set is classed as in vitro ADME. The conditions noted are these: percentage of compound remaining after 60 minutes, 3 μM compound. The procedure:
as §1, §2, §3, §4, §5, §6, §7, §8, §9

Sequence of Recombinant human JAK2 catalytic domain (O60674 808-1132): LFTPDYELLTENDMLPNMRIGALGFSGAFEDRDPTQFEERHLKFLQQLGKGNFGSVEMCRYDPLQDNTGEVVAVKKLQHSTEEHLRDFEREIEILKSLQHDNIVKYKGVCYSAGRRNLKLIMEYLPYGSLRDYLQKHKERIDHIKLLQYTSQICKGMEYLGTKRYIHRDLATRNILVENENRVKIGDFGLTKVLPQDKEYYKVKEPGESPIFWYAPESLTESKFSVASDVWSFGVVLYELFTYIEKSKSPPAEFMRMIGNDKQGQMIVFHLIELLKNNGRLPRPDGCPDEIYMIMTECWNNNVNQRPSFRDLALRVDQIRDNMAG
Sequence of Recombinant human JAK1 catalytic domain (P23458 850-1154): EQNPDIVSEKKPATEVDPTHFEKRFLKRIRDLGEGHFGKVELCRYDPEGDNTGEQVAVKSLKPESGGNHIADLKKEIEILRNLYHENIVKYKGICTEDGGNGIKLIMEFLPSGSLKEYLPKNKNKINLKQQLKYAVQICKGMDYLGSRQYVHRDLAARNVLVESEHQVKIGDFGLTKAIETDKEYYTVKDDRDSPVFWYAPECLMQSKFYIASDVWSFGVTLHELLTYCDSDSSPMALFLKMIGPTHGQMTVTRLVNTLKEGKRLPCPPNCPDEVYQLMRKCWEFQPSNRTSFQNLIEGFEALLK

As a reminder, the EC50 is the midpoint of the concentration-response curve. One may read the IC50 as the concentration at which inhibition is half-maximal. Consider `O=C(Nc1nc2cccc(-c3ccc(OCc4ccc[n+]([O-])c4)cc3)n2n1)C1CC1` [Compound 196, Cyclopropanecarboxylic acid {5-[4-(1-hydroxy-pyridin-3-ylmethoxy)-phenyl]-[1,2,4]triazolo[1,5-a]pyridin-2-yl}-amide], for which the EC50 (in the data set with MMP13 in SW1353 cells; in data set [2]) was more than 1000 nM in each case. For the same compound, the IC50 in data set [1] was less than 100 nM; in data set [4] it was 101 to 500 nM. Moreover, the “Microsomal Stability Rat (%)” value in data set [3] was “**** (**** 76-100)”. In addition, the “Microsomal Stability Human (%)” value in data set [5] is reported as “**** (**** 76-100)”.

Regarding `O=C(Nc1nc2cccc(-c3ccc(OCc4ccc(Cl)nc4)cc3)n2n1)C1CC1` [Compound 198, Cyclopropanecarboxylic acid {5-[4-(6-chloro-pyridin-3-ylmethoxy)-phenyl]-[1,2,4]triazolo[1,5-a]pyridin-2-yl}-amide], the EC50 in the data set with MMP13 in SW1353 cells is more than 1000 nM; in data set [2], 101 to 500 nM. For the same compound, the IC50 in data set [1] and in data set [4] was less than 100 nM in each case. In addition, in data set [3], the “Microsomal Stability Rat (%)” value is “*** (*** 51-75)”. Also, the “Microsomal Stability Human (%)” value in data set [5] is recorded as “*** (*** 51-75)”.

In the case of `Cc1noc(C)c1CCOc1ccc(-c2cccc3nc(NC(=O)C4CC4)nn23)cc1` [Compound 201, Cyclopropanecarboxylic acid (5-{4-[2-(3,5-dimethyl-isoxazol-4-yl)-ethoxy]-phenyl}-[1,2,4]triazolo[1,5-a]pyridin-2-yl)-amide], the figures for the EC50 (in the data set with MMP13 in SW1353 cells; in data set [2]) were 501 to 1000 nM and 101 to 500 nM, respectively. Moreover, the IC50 in data set [1] is less than 100 nM; in data set [4], 101 to 500 nM. Besides, the “Microsomal Stability Rat (%)” value in data set [3] is “* (* 0-25)”. Also, the “Microsomal Stability Human (%)” value in data set [5] is given as “* (* 0-25)”.

As to `CC(=O)N(Cc1cccnc1)c1ccc(-c2cccc3nc(NC(=O)C4CC4)nn23)cc1` [Compound 202, Cyclopropanecarboxylic acid {5-[4-(acetyl-pyridin-3-ylmethyl-amino)-phenyl]-[1,2,4]triazolo[1,5-a]pyridin-2-yl}-amide], the EC50 (in the data set with MMP13 in SW1353 cells; in data set [2]) was more than 1000 nM in each case. Further, the IC50 in data set [1] and in data set [4] was less than 100 nM in each case. Moreover, the “Microsomal Stability Rat (%)” value in data set [3] is “* (* 0-25)”. The “Microsomal Stability Human (%)” value in data set [5] is reported as “* (* 0-25)”.

`O=C(Nc1nc2cccc(-c3ccc(CCc4ccccn4)cc3)n2n1)C1CC1` [Compound 211, Cyclopropanecarboxylic Acid {5-[4-(2-pyridin-2-yl-ethyl)-phenyl]-[1,2,4]triazolo[1,5-a]pyridin-2-yl}-amide]: the half-maximal effective concentration (EC50) (in the data set on MMP13 in SW1353 cells; in data set [2]) was 501 to 1000 nM in each case. Besides, the IC50 in data set [1] and in data set [4] was less than 100 nM in each case. The “Microsomal Stability Rat (%)” value in data set [3] is reported as “* (* 0-25)”. Further, the “Microsomal Stability Human (%)” value in data set [5] is reported as “* (* 0-25)”.

Consider `O=C(Nc1nc2cccc(-c3ccc(CNc4ccc(Cl)cc4F)cc3)n2n1)C1CC1` [Compound 212, Cyclopropanecarboxylic acid (5-{4-[(4-chloro-2-fluoro-phenylamino)-methyl]-phenyl}-[1,2,4]triazolo[1,5-a]pyridin-2-yl)-amide], for which the EC50 with MMP13 in SW1353 cells fell in the range of 1 to 500 nM; in data set [2], 101 to 500 nM. For the same compound, the IC50 in data set [1] and in data set [4] was less than 100 nM each time. Also, in data set [3], the “Microsomal Stability Rat (%)” value is “** (** 26-50)”. Besides, the “Microsomal Stability Human (%)” value in data set [5] is on record as “*** (*** 51-75)”.

In the case of `N#CCc1ccc(NCc2ccc(-c3cccc4nc(NC(=O)C5CC5)nn34)cc2)cc1` [Compound 224], the EC50 was more than 1000 nM in the data set on MMP13 in SW1353 cells and 101 to 500 nM in data set [2]. Also, the IC50 in data set [1] and in data set [4] was less than 100 nM each time. Moreover, in data set [3], the “Microsomal Stability Rat (%)” value is reported as “* (* 0-25)”. Besides, the “Microsomal Stability Human (%)” value in data set [5] is listed as “* (* 0-25)”.

For the origin of these results see patent US10206907B2, “Compounds useful for the treatment of degenerative and inflammatory diseases” (GALAPAGOS NV, priority 2008, dated 2019).
